Columns and labels:
wheat crops = test: Experiment II: field experiments in wheat, irrigated north-west plain zone of Rajasthan; type: in vivo; conditions: 24 kg ha^−1
Description: Field Experiments in wheat was carried out using the composition of the present invention in the soils of the irrigated north-west plain zone of Rajasthan. The soils of north-west plain zone are deficient in zinc and poor growth or deficiency symptoms appear on the wheat crops. Two foliar sprays were applied. First, during the vegetative growth stage on early appearance of the deficiency symptoms and the second foliar spray during the flag leaf initiation stage of the wheat crop. [table] The soil of the irrigated north-west plain zone of Rajasthan has a pH, of 8.27 and electric conductivity was 0.20 dS^−m. […] The diethylene triamine pentaacetic acid (DTPA) extractable zinc concentration in the soil was low.

Wheat cultivar PBW 550 = test: Experiment I: field experiments in wheat under different Zn treatments (PAU research farm and farmer's field, Jattpur); type: in vivo; conditions: soil application 62.5 kg ha^−1
Description: Field Experiments in wheat was carried out using the composition of the present invention for two consecutive years in Punjab Agriculture University (PAU) Research Farm and Framer's field (Jattpur) loamy soil. Wheat cultivar PBW 550 seeds were sown during the first week of November. Two Zn chelates at different concentrations at two stages of wheat plant growth were applied through foliar application. In another treatment, Zn was added to the soil as basal dose at 62.5 kg ha^−1 using ZnSO4.7H2O salt. The first application of Zn chelate spray was done at maximum tillering stage and the second application was made at panicle initiation stage. Various parameters like plant height, tillers and 1000-grain weight were noted. Additionally during maturity in the month of April, the wheat grain and straw yield were noted.
The physio-chemical analyses of the soil before the start of the experiment was carried out at the two locations were the experiments were to be carried.
The plant parameters in wheat under different Zn treatments at PAU research farm and farmer's field are shown in Table 3 and Table 4 respectively and grain and straw yields in wheat under different Zn treatments at PAU research farm and farmer's field are shown in Table 5 and Table 6 respectively.

[1] = PAU research farm, Rabi 2009-2010
[2] = PAU research farm, Rabi 2010-2011

Which results are given for `O=S(=O)([O-])[O-].[Zn+2]` [ZnSO4]?
1000 Grain weight (wheat crops): 39.73 g; Ear length (cm) (wheat crops): 10.18 cm; No. of tillers m^−1 row length (wheat crops): 122; Yield (tonne ha^−1) Grain (wheat crops): 4.57 tonne ha^−1; Yield (tonne ha^−1) Straw (wheat crops): 6.61 tonne ha^−1; Zn conc (wheat crops): 30.25 mg/kg

Which results are given for `O.O.O.O.O.O.O.O=S(=O)([O-])[O-].[Zn+2]` [ZnSO4•7H2O]?
1000 grains weight (Wheat cultivar PBW 550; [1]): 38.4 g; Grain yield (Wheat cultivar PBW 550; [1]): 52.5 q ha^−1; Grain yield % increase over control (Wheat cultivar PBW 550; [1]): 10.8%; Plant height (cm) (Wheat cultivar PBW 550; [1]): 76.7 cm; Straw yield (Wheat cultivar PBW 550; [1]): 65.0 q ha^−1; Straw yield % increase over control (Wheat cultivar PBW 550; [1]): 3.7%; Tillers per square meter (Wheat cultivar PBW 550; [1]): 293; 1000 grains weight (Wheat cultivar PBW 550; [2]): 38.7 g; Grain yield (Wheat cultivar PBW 550; [2]): 54.4 q ha^−1; Grain yield % increase over control (Wheat cultivar PBW 550; [2]): 13.3%; Plant height (cm) (Wheat cultivar PBW 550; [2]): 97.69 cm; Straw yield (Wheat cultivar PBW 550; [2]): 65.7 q ha^−1; Straw yield % increase over control (Wheat cultivar PBW 550; [2]): 5.5%; Tillers per square meter (Wheat cultivar PBW 550; [2]): 377; 1000 grains weight (Wheat cultivar PBW 550; farmer's field, Rabi 2009-2010): 35.1 g; Grain yield (Wheat cultivar PBW 550; farmer's field, Rabi 2009-2010): 46.7 q ha^−1; Grain yield % increase over control (Wheat cultivar PBW 550; farmer's field, Rabi 2009-2010): 28.7%; Plant height (cm) (Wheat cultivar PBW 550; farmer's field, Rabi 2009-2010): 76.6 cm; Straw yield (Wheat cultivar PBW 550; farmer's field, Rabi 2009-2010): 55.3 q ha^−1; Straw yield % increase over control (Wheat cultivar PBW 550; farmer's field, Rabi 2009-2010): 9.1%; Tillers per square meter (Wheat cultivar PBW 550; farmer's field, Rabi 2009-2010): 272; 1000 grains weight (Wheat cultivar PBW 550; farmer's field, Rabi 2010-2011): 34.3 g; Grain yield (Wheat cultivar PBW 550; farmer's field, Rabi 2010-2011): 46.0 q ha^−1; Grain yield % increase over control (Wheat cultivar PBW 550; farmer's field, Rabi 2010-2011): 28.5%; Plant height (cm) (Wheat cultivar PBW 550; farmer's field, Rabi 2010-2011): 74.7 cm; Straw yield (Wheat cultivar PBW 550; farmer's field, Rabi 2010-2011): 54.7 q ha^−1; Straw yield % increase over control (Wheat cultivar PBW 550; farmer's field, Rabi 2010-2011): 20.8%; Tillers per square meter (Wheat cultivar PBW 550; farmer's field, Rabi 2010-2011): 353
